Values joined by “and” are separate entries in the source; they are usually repeats but may differ in a detail not shown here. Equal values may be shown once. Read-outs that look alike come from different tables or passages of the source. Blank lines part the entries; values can stand above or below the molecule they belong to.
Key:
Format in all cases: cell-based, human
intracellular ROS = test: Intracellular reactive oxygen species (ROS) by flow cytometry in whole blood neutrophils from COPD patients; settings: fMLP 1 μM or CSE 5%, 1 h, NAC 1 mM
Experimental: Intracellular reactive oxygen species (ROS) were measured by a flow cytometry assay using 2′,7′-dichlorodihydrofluorescein diacetate (H2DCF-DA, Molecular Probes, UK) as previously outlined (Milara et al., 2010). H2DCF-DA was added for 15 min before stimulus to a final concentration of 5 μM to measure intracellular ROS. The bacterial peptide fMLP was added as stimulus at 1 μM […] to generate intracellular ROS (Elbim et al., 2001). In other experiments, to reproduce in vivo conditions, CSE 5% was added to generate intracellular ROS. Intracellular ROS was measured using fresh whole blood from COPD patients. Blood neutrophils were selected using CD16-Alexa Fluor 647 antibody (molecular probes, UK) as neutrophil marker, and CD14-PerCEP-Cy5.5 mouse antihuman (molecular probes, UK) as monocyte marker in an Epics Profile II flow cytometer. A total of 1 ml of whole blood was pre-incubated at 37° C. for 30 min with RNO ([…] (1 mM) and H2DCF-DA followed by fMLP 1 μM or CSE 5% stimulation for another 1 h. Then erythrocytes were lysed using a commercial erythrocyte lysis buffer (Biolegend, UK) for 10 min. Fluorescence intensity was measured in the polymorphonuclear region of whole blood in an Epics Profile II flow cytometer. Results were expressed as DCF fluorescence in relative fluorescence units (RFU).
To this end, whole blood was stimulated with the bacterial peptide fMLP 1 μM or with CSE 5% in presence or absence of RNO or NAC for 1 h.

MKP1 = test: Real time RT-PCR of MKP1 mRNA in CSE-stimulated neutrophils from COPD patients; settings: RNO 1 nM and 1 μM, DEX 1 μM, RNO 1 nM plus DEX 1 μM, NAC 1 mM for 1 h, then CSE 5% 6 h
Experimental: (§1) Neutrophils and monocytes were isolated from peripheral venous blood by standard laboratory procedures. In brief, peripheral venous blood was mixed with dextran 500 at 3% (in 0.9% saline) in a proportion of 2:1. This mixture was incubated at room temperature for 30 min until erythrocytes were sedimented. The upper phase was carefully collected and added on Ficoll-Paque Histopaque 1077 (Amershan Pharmacia Biotech, Barcelona, Spain) density gradient in a proportion of 3:1. The two phases generated were centrifuged at 150 g, 4° C. for 30 min. […]
(§2) CSE was prepared as previously outlined (Milara et al.; Ortiz et al.). […] The quality of the prepared CSE solution was assessed based on the absorbance at 320 nm, which is the specific absorption wavelength of peroxynitrite. Stock solutions with an absorbance value of 3.0±0.1 were used. […]
(§3) Total RNA was obtained from isolated neutrophils under basal conditions or after different drug and stimulation periods defined above by using TriPure® Isolation Reagent (Roche, Indianapolis, USA). […] Relative quantification of these transcripts was determined with the 2^−ΔΔCt method using glyceraldehyde phosphate dehydrogenase (GAPDH) as endogenous control (Applied Biosystems; 4352339E) and normalized to control group as previously described (Milara et al., 2009).
(§4) Then, mRNA was isolated and quantified for different genes.

MIF = test: Real time RT-PCR of MIF mRNA in CSE-stimulated neutrophils from COPD patients; settings: RNO 1 nM and 1 μM, DEX 1 μM, RNO 1 nM plus DEX 1 μM, NAC 1 mM for 1 h, then CSE 5% 6 h
Experimental: as §1, §2, §3, §4

IL-8 release = test: LPS- or CSE-induced IL-8 release in isolated peripheral blood neutrophils (ELISA); settings: for Maximal % Inhibition of IL-8 release / IC50: 6 h; for IC50: Homo sapiens, Neutrophil, read-out: -log IC50, inhibition of IL-8 release (converted)
Experimental: (§5) Neutrophils and monocytes were isolated from peripheral venous blood by standard laboratory procedures. In brief, peripheral venous blood was mixed with dextran 500 at 3% (in 0.9% saline) in a proportion of 2:1. This mixture was incubated at room temperature for 30 min until erythrocytes were sedimented. The upper phase was carefully collected and added on Ficoll-Paque Histopaque 1077 (Amershan Pharmacia Biotech, Barcelona, Spain) density gradient in a proportion of 3:1. The two phases generated were centrifuged at 150 g, 4° C. for 30 min. Thus, the interface was collected to isolate monocytes, and the pellet obtained (which is consisted a mixture of neutrophils and low proportion of residual erythrocytes and traces of eosinophils and basophils) was resuspended in an erythrocyte lysis buffer (Biolegend, UK) for 5 min in ice. Cell suspension was washed two times with phosphate buffer (PBS).
(§6) CSE was prepared as previously outlined (Milara et al.; Ortiz et al.). Briefly, the smoke of a research cigarette (2R4F; Tobacco Health Research, University of Kentucky, KY, USA) was generated by a respiratory pump (Apparatus Rodent Respirator 680; Harvard, Germany) through a puffing mechanism related to the human smoking pattern (3 puff/min; 1 puff 35 ml; each puff of 2 s duration with 0.5 cm above the filter) and was bubbled into a flask containing 25 ml of pre-warmed (37° C.) RPMI 1640 culture medium supplemented as describe above. The CSE solution was sterilized by filtration through a 0.22-μm cellulose acetate sterilizing system (Corning, N.Y.). The resultant CSE solution was considered to be 100% CSE and was used for experiments within 30 min of preparation. CSE 10% corresponds approximately to the exposure associated with smoking two packs per day (Su et al., 1998). The quality of the prepared CSE solution was assessed based on the absorbance at 320 nm, which is the specific absorption wavelength of peroxynitrite. Stock solutions with an absorbance value of 3.0±0.1 were used. To test for cytotoxicity from CSE, isolated neutrophils and monocytes were treated with CSE concentrations of up to 5% for 24.
(§7) Peripheral neutrophil cell suspension was adjusted to 500×10^3 cells per well in 24-well plates and incubated in RPMI culture medium for 1 h into the incubator at 37° C., 5% CO2. […] Both the stimulus and drug were remained together for 6 h. Supernatants were collected and centrifuged at 120 g for 5 min, and the free-cell supernatant was used to measure IL-8, MMP-9, IL-1β, GM-CSF and CCL-5.
(§8) IL-8 was determined by using commercially available enzyme-linked immunosorbent assay kit for IL-8 (R&D Systems, UK) according to the manufacturer's protocol. MMP-9, IL-1β, GM-CSF and CCL-5 were measured by LUMINEX technology according to the manufacturer's protocol.
(§9) Data were presented as mean±SEM. IC50 values were calculated for each drug and their combinations. Statistical analysis of results was carried out by analysis of variance (ANOVA) followed by Bonferroni test, by Student's t test, or by non-parametric tests as appropriate (GraphPad Software Inc, San Diego, Calif., USA). Significance was accepted when P<0.05. For clinical correlations of lung function and gene expression from neutrophils the non-parametric Spearman correlation analysis was carried out.

GCβ = test: Real time RT-PCR of GCβ mRNA in CSE-stimulated neutrophils from COPD patients; settings: RNO 1 nM and 1 μM, DEX 1 μM, RNO 1 nM plus DEX 1 μM, NAC 1 mM, CSE 5%
Experimental: as §1, §2, §3, §4

p-ERK1/2 = test: Western blot of ERK1/2 phosphorylation in CSE-stimulated neutrophils from COPD patients; settings: RNO 1 nM and 1 μM, DEX 1 μM, RNO 1 nM plus DEX 1 μM, NAC 1 mM for 1 h, then CSE 5% 20 min
Experimental: as §1, §2
Western blot analysis was used to detect changes in p-ERK1/2 (42-44 kD). […] Cells were then centrifuged and the total protein was extracted using a lysis buffer consisting of a complete inhibitor cocktail plus 1 mM ethylenediaminetetraacectic acid (Roche Diagnostics Ltd, West Sussex, UK) with 20 mM Tris base, 0.9% NaCl, 0.1% Triton X-100, 1 mM dithiothreitol and 1 μg mL^−1 pepstatin A. The Bio-Rad assay (Bio-Rad Laboratories Ltd., Herts, UK) was used (following manufacturer's instructions) to quantify the level of protein in each sample to ensure equal protein loading. […]

MMP-9 release = test: LPS- or CSE-induced MMP-9 release in isolated peripheral blood neutrophils (LUMINEX); settings: for Maximal % Inhibition of MMP-9 release / IC50: 6 h; for IC50: Homo sapiens, Neutrophil, read-out: -log IC50, inhibition of MMP-9 release (converted)
Experimental: as §5, §6, §7, §8, §9

HDAC2 = test: Real time RT-PCR of HDAC2 expression in CSE-stimulated neutrophils from COPD patients; settings: RNO 1 nM and 1 μM, DEX 1 μM, RNO 1 nM plus DEX 1 μM, NAC 1 mM, CSE 5%
Experimental: as §1, §2, §3, §4

PI3Kδ = test: Real time RT-PCR of PI3Kδ expression in CSE-stimulated neutrophils from COPD patients; settings: RNO 1 nM and 1 μM, DEX 1 μM, RNO 1 nM plus DEX 1 μM, NAC 1 mM, CSE 5%
Experimental: as §1, §2, §3, §4

CCL-5 release = test: LPS-induced CCL-5 release in isolated peripheral blood neutrophils (LUMINEX); settings: for IC50: Homo sapiens, Neutrophil
Experimental: as §5, §7, §8, §9

IL-1β release = test: LPS-induced IL-1β release in isolated peripheral blood neutrophils (LUMINEX); settings: for IC50: Homo sapiens, Neutrophil
Experimental: as §5, §7, §8, §9

[1] = COPD neutrophils stimulated with LPS or CSE, LY-294002 10 μM, NAC 1 mM
[2] = LPS (1 μg/ml), 6 h, neutrophils from COPD patients
[3] = LPS (1 μg/ml), 6 h, neutrophils from HEALTHY
[4] = CSE 5%, neutrophils from COPD patients
[5] = CSE 5%, neutrophils from HEALTHY
[6] = LPS (1 μg/ml), neutrophils from COPD patients
[7] = LPS (1 μg/ml), neutrophils from HEALTHY

SMILES: CC(=O)N[C@@H](CS)C(=O)O [NAC, N-acetyl-1-cysteine]
effect on ROS generation in neutrophils (intracellular ROS): inhibited
effect on CSE-induced down-regulation of MKP1 mRNA expression (MKP1): effectively increased
effect on CSE-induced increase of MIF mRNA expression (MIF): reduced
rescue of DEX anti-inflammatory effect on IL-8 release (IL-8 release; [1]): able to rescue DEX anti-inflammatory effect
effect on CSE-induced GCβ upregulation (GCβ): inhibited
effect on CSE-induced phosphorylation of ERK1/2 (p-ERK1/2): inhibited
rescue of DEX anti-inflammatory effect on MMP-9 release (MMP-9 release; [1]): able to rescue DEX anti-inflammatory effect
effect on CSE-induced HDAC2 downregulation (HDAC2): inhibited
effect on CSE-induced PI3Kδ upregulation (PI3Kδ): inhibited

IC50 (CCL-5 release; 6 h, LPS (1 μg/ml), 6 h, neutrophils from COPD patients, read-out: -log IC50, inhibition of CCL-5 release (converted)): 32.4 nM
IC50 (CCL-5 release; LPS, neutrophils from COPD patients, read-out: -log IC50, CCL-5 release (converted)): 32.4 nM
IC50 (IL-8 release; [4]): 15.5 nM
IC50 (IL-8 release; [6]): 42.7 nM
IC50 (IL-1β release; 6 h, LPS (1 μg/ml), 6 h, neutrophils from COPD patients, read-out: -log IC50, inhibition of IL-1β release (converted)): 45.7 nM
IC50 (IL-1β release; LPS, neutrophils from COPD patients, read-out: -log IC50, IL-1β release (converted)): 45.7 nM
IC50 (MMP-9 release; [4]): 2.19 nM
IC50 (MMP-9 release; [6]): 46.8 nM
SMILES: C[C@@H]1C[C@H]2[C@@H]3CCC4=CC(=O)C=C[C@]4(C)[C@@]3(F)[C@@H](O)C[C@]2(C)[C@@]1(O)C(=O)CO [DEX, dexamethasone]
IC50 (CCL-5 release; 6 h, LPS (1 μg/ml), 6 h, neutrophils from HEALTHY, read-out: -log IC50, inhibition of CCL-5 release (converted)): 7.24 nM
IC50 (CCL-5 release; LPS, neutrophils from healthy volunteers, read-out: -log IC50, CCL-5 release (converted)): 7.24 nM
Maximal % Inhibition of CCL-5 release (CCL-5 release; [2]): 86.30 ± 10.16%
Maximal % Inhibition of CCL-5 release (CCL-5 release; [3]): 83.78 ± 8.64%
Maximal % Inhibition of IL-8 release (IL-8 release; [4]): 20.6%
Maximal % Inhibition of IL-8 release (IL-8 release; [5]): 94.33 ± 21.7%
IC50 (IL-8 release; [5]): 17 nM
IC50 (IL-8 release; [7]): 47.9 nM
Maximal % Inhibition of IL-8 release (IL-8 release; [6]): 15%
Maximal % Inhibition of IL-8 release (IL-8 release; [7]): 67.08 ± 11.41%
IC50 (IL-1β release; 6 h, LPS (1 μg/ml), 6 h, neutrophils from HEALTHY, read-out: -log IC50, inhibition of IL-1β release (converted)): 10.7 nM
IC50 (IL-1β release; LPS, neutrophils from healthy volunteers, read-out: -log IC50, IL-1β release (converted)): 10.7 nM
Maximal % Inhibition of IL-1β release (IL-1β release; [2]): 77.16 ± 5.69%
Maximal % Inhibition of IL-1β release (IL-1β release; [3]): 79.58 ± 5.57%
Maximal % Inhibition of MMP-9 release (MMP-9 release; [4]): 15.4% and 15.44 ± 6.95 %
Maximal % Inhibition of MMP-9 release (MMP-9 release; [5]): 83.9 ± 5.79%
IC50 (MMP-9 release; [5]): 1.38 nM
IC50 (MMP-9 release; [7]): 6.03 nM
Maximal % Inhibition of MMP-9 release (MMP-9 release; [6]): 8.8%
Maximal % Inhibition of MMP-9 release (MMP-9 release; [7]): 96.8 ± 5.1%
